This is an account of results in paper PMC9611449, “Hydroxy-3-Phenylcoumarins as Multitarget Compounds for Skin Aging Diseases: Synthesis, Molecular Docking and Tyrosinase, Elastase, Collagenase and Hyaluronidase Inhibition, and Sun Protection Factor” (Molecules, 2022).

Data set [1] addresses tyrosinase. Conditions: cited from earlier work.
Data set [2] has as its system mushroom tyrosinase. Kind of data set: Tyrosinase inhibition assay (L-DOPA substrate). Conditions: for Enzyme inhibition Tyrosinase: 50 μM; for IC50: mean ± SD of three independent experiments. It is filed as biochemical. The procedure:
(§1) Since the compounds were dissolved in DMSO, in the assays carried out without compounds, DMSO was added to the reaction mixture as blank control. […] Data from activity experiments were recorded using an Ultrospec 2100 spectrophotometer (Biochrom Ltd., Cambridge, UK).
The inhibition of tyrosinase was monitored by using DOPA as substrate. The reaction solution contained phosphate buffer (25 mM, pH 6.8) and mushroom tyrosinase (100 U/mL), with or without test samples.

Data set [3] in a line: In vitro determination of the sun protection factor (UV absorbance, Mansur equation). It is filed as physicochemical. The settings on record: compounds 0.1 mg/mL, absorbance 290–320 nm. Here is the method: The sun protection factor of coumarins’ derivatives was measured by the UV absorbance method, as previously reported. The absorbances of the compounds (0.1 mg/mL) were registered in the range of 290–320 nm, with 5 nm increments, and three measurements were performed at each point. The SPF was determined by using the Mansur Equation [23]: SPF=CF × Σ290320 × EE(λ) × I(λ) × Abs(λ) where CF = correction factor (10); EE (λ) = erythemogenic effect of radiation with wavelength λ; I(λ) = solar intensity spectrum; Abs(λ) = spectrophotometric absorbance values at wavelength λ. The values of EE (λ) × I(λ) are constant as determined by Sayre et al. (Table 5).

The test system of data set [4] is Collagenase from Clostridium histolyticum. Kind of data set: Collagenase inhibition assay (FALGPA substrate). It is filed as biochemical. Conditions: for Enzyme inhibition Collagenase: 100 μM; for IC50: mean ± SD of three independent experiments. Here is the method: Results from all the inhibition tests described below were reported as a percentage of the blank control. Since the compounds were dissolved in DMSO, in the assays carried out without compounds, DMSO was added to the reaction mixture as blank control. […] Data from activity experiments were recorded using an Ultrospec 2100 spectrophotometer (Biochrom Ltd., Cambridge, UK).
Collagenase from Clostridium histolyticum (1 U/mL) was prepared in 0.05 M Tricine buffer (pH 7.5), with 0.4 M NaCl and 0.01 M CaCl2, and incubated with different concentrations of test samples for 15 minutes. After adding the N-(3-[2-Furyl]-acryloyl)-Leu-Gly-Pro-Ala (FALGPA) substrate, prepared in the same buffer solution reaching a final concentration of 0.8 mM, the absorbance was registered at 340 nm. Epigallocatechin gallate was used as a positive control.

In data set [5] the test system is Human skin keratinocyte cell line (HaCaT). Kind of data set: HaCaT cell viability (MTT assay). The format is cell-based. Conditions: 10–200 μM, 24 h. The procedure:
Human skin keratinocyte cell line (HaCaT; CLS–Cell Lines Service, Eppelheim, Germany) was cultured in Dulbecco’s Modified Eagle’s Medium (DMEM) with 10% fetal bovine serum (FBS; Gibco, NY, USA) and 1% penicillin/streptomycin at 37 °C in a humidified atmosphere with 5% CO2. Cell viability was determined by the MTT (3-(4,5-dimethylthiazol-2-yl)-2,5-diphenyltetrazolium bromide) colorimetric assay, as previously reported. Briefly, HaCaT cells were seeded in 96-well plates and incubated with compounds at different concentrations (0–200 µM). After 24 h, cells were labelled with MTT solution for 3 h at 37 °C. DMSO was added to the formed violet formazan precipitates and the absorbance of each well was measured at 560 nm.

For data set [6], the target named is porcine pancreatic elastase (Sus scrofa, UniProt P00772). Kind of data set: Elastase inhibition assay (SANA substrate). It is filed as biochemical. Conditions: for inhibition at 50 µM: read-out: Enzyme inhibition Elastase; for IC50: mean ± SD of three independent experiments; for inhibition at 50 µM / Enzyme inhibition Elastase: 50 μM. Here is the method: as §1
The inhibition of elastase was determined by measuring the production of p-nitroaniline during the reaction of the enzyme with the N-succ-(Ala)3-nitroanilide (SANA) substrate. The assay was carried out in Tris-HCl buffer (0.1 M, pH 8.0) containing porcine pancreatic elastase (3.3 µg/mL). The reaction mixture was incubated in the presence or in the absence of the test compounds for 20 minutes and, once the substrate (1.6 mM) was added, the enzyme activity was monitored at 410 nm.

[7] abbreviates: already described by our research group.

Structures are written as SMILES. Where “and” joins values, the source holds several entries; their conditions need not be identical. Identical values can stand only once. Entries after “also recorded” stand apart in the source; their conditions may differ. Like-named read-outs stand apart in the source and are kept apart here.

porcine pancreatic elastase, sequence (P00772 27-266): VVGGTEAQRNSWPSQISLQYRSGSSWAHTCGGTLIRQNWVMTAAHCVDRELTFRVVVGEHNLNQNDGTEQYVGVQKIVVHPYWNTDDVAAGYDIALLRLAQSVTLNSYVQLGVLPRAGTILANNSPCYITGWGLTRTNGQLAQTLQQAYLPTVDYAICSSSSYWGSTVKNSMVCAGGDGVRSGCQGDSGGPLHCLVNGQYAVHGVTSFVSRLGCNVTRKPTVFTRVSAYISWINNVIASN

Turning to `Nc1cc2ccc(O)cc2oc1=O` [3-Amino-7-hydroxycoumarin], in data set [1], the IC50 is 50 µM.

Turning to `O=c1oc2c(O)cc(O)cc2cc1-c1cc(O)c(O)c(O)c1` [6,8-Dihydroxy-3-(3',4',5'-trihydroxyphenyl)coumarin], the IC50 in data set [1] (setting [7]) was 270 µM.

On to `O=c1oc2c(O)cc(Br)cc2cc1-c1ccc(O)cc1` [6-Bromo-8-hydroxy-3-(4'-hydroxyphenyl)coumarin], for which the IC50 in data set [1] (setting [7]) was 215 µM.

With `O=c1oc2cc(O)cc(O)c2cc1-c1cccc(Br)c1` [Compound 2, 3-(3′-Bromophenyl)-5,7-dihydroxycoumarin], in data set [2], the “Enzyme inhibition Tyrosinase” value is on record as 79.2%; the IC50 was 7.03 µM and 7 µM. Besides, the “times more active than the standard inhibitor kojic acid (tyrosinase)” value in data set [2] (ratio of IC50 values) came out at 2.6 times. Also, the SPF in data set [3] is recorded as 4.52 ± 0.22. In data set [4], the “Enzyme inhibition Collagenase” value stood at 44.3% and the 50% inhibitory concentration (IC50) stood at 110 ± 2.8 µM. Further, the “Cytotoxicity on HaCaT cell viability” value in data set [5] is given as “non-cytotoxic; also recorded: no toxicity”. In addition, in data set [6], the inhibition at 50 µM was found to be 20.3% and the IC50 is > 50 µM.

Regarding `O=c1oc2cc(O)cc(O)c2cc1-c1ccccc1Br` [Compound 3, 3-(2′-Bromophenyl)-5,7-dihydroxycoumarin], in data set [2], the “Enzyme inhibition Tyrosinase” value stood at 29.3% and the IC50 is > 50 µM. Moreover, the SPF in data set [3] amounted to 5.89 ± 0.21. In data set [4], the “Enzyme inhibition Collagenase” value was 37.1% and 125 ± 10.2 µM corresponded to half-maximal inhibition (IC50). For the same molecule, in data set [6], the “Enzyme inhibition Elastase” value is recorded as “N.I” and the IC50 is > 50 µM.

With `O=c1oc2cc(O)c(O)cc2cc1-c1cccc(Br)c1` [Compound 5, 3-(3′-Bromophenyl)-6,7-dihydroxycoumarin], in data set [2], the “Enzyme inhibition Tyrosinase” value is on record as 80.3%; the 50% inhibitory concentration (IC50) is 8.25 µM and 8.3 µM. Also, in data set [4], the “Enzyme inhibition Collagenase” value is given as 18.2% and the concentration for half-maximal inhibition (IC50) was > 150 µM. In data set [6], the inhibition at 50 µM is 68.4% and half-maximal inhibition (IC50) was put at 37.4 µM.

With `O=c1oc2cc(O)c(O)cc2cc1-c1ccccc1Br` [Compound 6, 3-(2′-Bromophenyl)-6,7-dihydroxycoumarin], in data set [2], the “Enzyme inhibition Tyrosinase” value is on record as 25.8% and the IC50 was > 50 µM. Moreover, the SPF in data set [3] is 8.08 and 8.08 ± 0.01. For the same molecule, in data set [4], the “Enzyme inhibition Collagenase” value is 38.1% and the half-inhibitory concentration (IC50) was found to be 140 ± 8 µM. In data set [6], the inhibition at 50 µM was found to be 23.8% and the half-maximal inhibitory concentration (IC50) was > 50 µM.

Turning to `O=c1oc2c(O)c(O)ccc2cc1-c1ccc(Br)cc1` [Compound 7, 3-(4′-Bromophenyl)-7,8-dihydroxycoumarin], in data set [2], the “Enzyme inhibition Tyrosinase” value came out at 9.6% and the IC50 is > 50 µM. Moreover, in data set [3], the SPF was determined as 5.88 ± 1.35. For the same molecule, in data set [4], the “Enzyme inhibition Collagenase” value is “N.I” and the IC50 was > 150 µM. In addition, in data set [6], the inhibition at 50 µM worked out at 15.6% and the IC50 was > 50 µM.

With `O=c1oc2c(O)c(O)ccc2cc1-c1cccc(Br)c1` [Compound 8, 3-(3′-Bromophenyl)-7,8-dihydroxycoumarin], in data set [2], the “Enzyme inhibition Tyrosinase” value worked out at 33.6% and the IC50 was > 50 µM. Also, the SPF in data set [3] is 6.94 ± 2.57. In data set [4], the “Enzyme inhibition Collagenase” value worked out at 39.9% and the IC50 is 122 ± 4.8 µM. In data set [6], the inhibition at 50 µM amounted to 2.2% and the IC50 was > 50 µM.

For `O=c1oc2c(O)c(O)ccc2cc1-c1ccccc1Br` [Compound 9, 3-(2′-Bromophenyl)-7,8-dihydroxycoumarin], in data set [2], the “Enzyme inhibition Tyrosinase” value was 15.7% and the half-maximal inhibitory concentration (IC50) was > 50 µM. For the same molecule, the SPF in data set [3] came to 4.27 ± 0.91. Further, in data set [4], the “Enzyme inhibition Collagenase” value was 14.7% and the IC50 was > 150 µM. Moreover, in data set [6], the “Enzyme inhibition Elastase” value is given as “N.I” and the concentration for half-maximal inhibition (IC50) was > 50 µM.

For `O=c1oc2cc(O)ccc2cc1-c1cccc(Br)c1` [Compound 10, 3-(3′-Bromophenyl)-7-hydroxycoumarin], in data set [2], the “Enzyme inhibition Tyrosinase” value was found to be 56.9% and the IC50 was 42 ± 1.1 µM. In addition, in data set [3], the SPF stood at 6.70 ± 1.30. Also, in data set [4], the “Enzyme inhibition Collagenase” value came to 13.2% and the IC50 was > 150 µM. Further, in data set [6], the inhibition at 50 µM turned out to be 38.9% and the IC50 is > 50 µM.

With `O=c1oc2cc(O)c(O)cc2cc1-c1cccc(O)c1` [Compound 11, 6,7-Dihydroxy-3-(3′-hydroxyphenyl)coumarin], in data set [2], the “Enzyme inhibition Tyrosinase” value came out at 8.6% and the IC50 is > 50 µM. Besides, the SPF in data set [3] was 5.44 and 5.44 ± 0.64. Moreover, in data set [4], the “Enzyme inhibition Collagenase” value was 35.7% and it took 143 ± 7.1 µM to reach half-maximal inhibition (IC50). In data set [6], the inhibition at 50 µM is 29.6% and the concentration for half-maximal inhibition (IC50) was > 50 µM.

Turning to `O=c1oc2cc(O)c(O)cc2cc1-c1ccccc1O` [Compound 12, 6,7-Dihydroxy-3-(2′-hydroxyphenyl)coumarin], in data set [2], the “Enzyme inhibition Tyrosinase” value stood at 22.7% and the half-maximal inhibitory concentration (IC50) is > 50 µM. Besides, the SPF in data set [3] is 5.64 and 5.64 ± 1.43. Moreover, in data set [4], the “Enzyme inhibition Collagenase” value is 39.3% and the IC50 was 134 ± 6.6 µM. In data set [6], the inhibition at 50 µM was 24.5% and the IC50 is > 50 µM.

For `O=c1oc2ccc3ccccc3c2cc1-c1ccc(O)cc1` [Compound 13, 3-(4′-Hydroxyphenyl)benzo[f]coumarin], in data set [2], the “Enzyme inhibition Tyrosinase” value turned out to be 23.2% and the IC50 was > 50 µM. Further, the SPF in data set [3] was 6.40 ± 1.53. For the same molecule, in data set [4], the “Enzyme inhibition Collagenase” value is listed as 51.5% and the IC50 is 96.8 ± 5.9 µM. In data set [4] (ratio of IC50 values), the “times more active than the reference compound epigallocatechin gallate (collagenase)” value is on record as 1.25 times. Besides, in data set [6], the inhibition at 50 µM was 20.7% and the IC50 is > 50 µM.

As to `O=c1oc2ccc3ccccc3c2cc1-c1cccc(O)c1` [Compound 14, 3-(3′-Hydroxyphenyl)benzo[f]coumarin], in data set [2], the “Enzyme inhibition Tyrosinase” value turned out to be 22.3% and the IC50 is > 50 µM. The same molecule had an SPF in data set [3] of 5.08 ± 0.46. In data set [4], the “Enzyme inhibition Collagenase” value worked out at 21.2% and the half-maximal inhibitory concentration (IC50) was > 150 µM. For the same molecule, in data set [6], the inhibition at 50 µM is 35.3% and the half-inhibitory concentration (IC50) was > 50 µM.

For `O=c1oc2ccc3ccccc3c2cc1-c1ccccc1O` [Compound 15, 3-(2′-Hydroxyphenyl)benzo[f]coumarin], in data set [2], the “Enzyme inhibition Tyrosinase” value is “N.I” and the half-inhibitory concentration (IC50) was > 50 µM. The molecule also came in with an SPF in data set [3] of 6.89 ± 3.28. In addition, in data set [4], the “Enzyme inhibition Collagenase” value is recorded as “N.I” and the IC50 was > 150 µM. Also, in data set [6], the “Enzyme inhibition Elastase” value is on record as “N.I” and the IC50 is > 50 µM.

As for `O=c1oc2ccc3ccccc3c2cc1-c1ccc(O)c(O)c1` [Compound 16, 3-(3′,4′-Dihydroxyphenyl)benzo[f]coumarin], in data set [2], the “Enzyme inhibition Tyrosinase” value is “N.I” and the IC50 is > 50 µM. Moreover, the SPF in data set [3] stood at 5.09 ± 1.35. In data set [4], the “Enzyme inhibition Collagenase” value was 7.9% and the IC50 is > 150 µM. In data set [6], the inhibition at 50 µM is 22.8% and the IC50 is > 50 µM.

As for `O=c1oc2ccc3ccccc3c2cc1-c1cc(O)cc(O)c1` [Compound 17, 3-(3′,5′-Dihydroxyphenyl)benzo[f]coumarin], in data set [2], the “Enzyme inhibition Tyrosinase” value stood at 10.0% and the IC50 was > 50 µM. The molecule also gave an SPF in data set [3] of 4.34 ± 0.66. In addition, in data set [4], the “Enzyme inhibition Collagenase” value is given as 15.6% and the concentration for half-maximal inhibition (IC50) is > 150 µM. Also, in data set [6], the inhibition at 50 µM was found to be 22.4% and the IC50 was > 50 µM.

Molecule `O=C(O[C@@H]1Cc2c(O)cc(O)cc2O[C@@H]1c1cc(O)c(O)c(O)c1)c1cc(O)c(O)c(O)c1` [Epigallocatechin gallate, reference compound] showed a concentration for half-maximal inhibition (IC50) in data set [4] of 121 ± 6.2 µM.

Take `O=c1ccc2cc(O)c(O)cc2o1` [Esculetin]: the IC50 in data set [1] (setting [7]) is 43 µM.
